≈ marks a conversion by molar mass, not a printed value. Where two headings read alike, the source gives them in different places.
What was measured:
[1] = In vivo tissue distribution test; design: species or system ICR mice; conditions: mouse, po; for Kp: ICR, 100 mg/kg
Description: An in vivo tissue distribution test was performed in order to confirm the degree of drug distribution of the L-aspartate and hydrochloride according to the present invention in each organ. After 8-week-old ICR mice were purchased and adapted in the laboratory, each salt was orally administered to the mouse at a dose of 100 mg/kg. The mice were bled and sacrificed at a predetermined time and each organ was drawn to measure the concentration in each organ. After the administration of hydrochloride and L-aspartate, each organ concentration over time, the area under the corresponding time-concentration curve, and the ratio of permeation into tissue were shown in Tables 5 and 6.
Then, P ratio is a ratio of permeation into muscle and calculated as intramuscular AUC/intraplasmic AUC.

[2] = In vivo tissue distribution test; design: species or system ICR mice; conditions: ICR, mouse, spleen, po, 100 mg/kg; read-out: P ratio Spleen
Male ICR mice = assay: Single dose toxicity in mice (LD50); conditions: single intraperitoneal dose, observed 14 days
Description: The following experiment was performed in order to observe the degree of toxicity of the L-aspartate according to the present invention.
Male ICR mice were used as experimental animals. 5 male ICR mice were divided into 6 dose groups, respectively and fasted except for water for 24 hours.

Solubility test = format: physicochemical
[3] = Stability test in distilled water; format: physicochemical; conditions: 30 mg in 100 ml distilled water
[4] = In vivo pharmacokinetic test; design: species or system SD rats; conditions: rats
Text: The L-aspartate and hydrochloride according to the present invention were orally or intravenously administered to SD rats, respectively and blood samples were collected at a predetermined time to compare in vivo pharmacokinetics.
Then, Cmax: maximum drug concentration, Tmax: maximum drug concentration time, T1/2: drug half-life, AUCO-t: area under the plasma concentration-time curve from time zero to t hours, and AUCO-inf: area under the plasma concentration-time curve from time zero to infinity.

[5] = test system: polychromatic erythrocyte with one or more nuclei (MNPCE); assay: In vivo genotoxicity, micronucleus test; conditions: male mice, twice intraperitoneal, 30, 15, 7.5 mg/kg
Text: The following study performed to obtain in vivo genotoxicities, micronucleus test of L-aspartate and hydrochloric acid salt in male mice to the following procedure.

[6] = male, testicle, ICR mice, p.o. 100 mg/kg, read-out: Testicle concentration
[7] = brain, ICR mice, p.o. 100 mg/kg, read-out: Brain concentration
[8] = heart, ICR mice, p.o. 100 mg/kg, read-out: Heart concentration
[9] = kidney, ICR mice, p.o. 100 mg/kg, read-out: Kidney concentration
[10] = liver, ICR mice, p.o. 100 mg/kg, read-out: Liver concentration
[11] = lung, ICR mice, p.o. 100 mg/kg, read-out: Lung concentration
[12] = muscle, ICR mice, p.o. 100 mg/kg, read-out: Muscle concentration
[13] = plasma, ICR mice, p.o. 100 mg/kg, read-out: Plasma concentration
[14] = spleen, ICR mice, p.o. 100 mg/kg, read-out: Spleen concentration
[15] = testicle, ICR mice, p.o. 100 mg/kg, read-out: Testicle concentration
[16] = thymus, ICR mice, p.o. 100 mg/kg, read-out: Thymus concentration
[17] = SD, rat, plasma, iv, i.v. 10 mg/kg
[18] = SD, rat, plasma, po, p.o. 100 mg/kg

Compound: CO/N=C1/CN(c2nc3c(cc2F)c(=O)c(C(=O)O)cn3C2CC2)C[C@@]1(C)CN [L-aspartate (Example 1)]
- Kp ([1]; brain, read-out: P ratio Brain): 0.27
- Kp ([1]; heart, read-out: P ratio Heart): 4.28
- Kp ([1]; kidney, read-out: P ratio Kidney): 7.44
- Kp ([1]; liver, read-out: P ratio Liver): 11.2
- Kp ([1]; lung, read-out: P ratio Lung): 6.01
- Kp ([1]; muscle, read-out: P ratio Muscle): 3.87
- Kp ([1]; thymus, read-out: P ratio Thymus): 4.96
- Kp ([1]; male, testicle, read-out: P ratio Testicle): 1.75
- concentration at 0.5 h [1, 6]: 4940 ng/g
- concentration at 1 h [1, 6]: 8820 ng/g
- concentration at 8 h [1, 6]: 6970 ng/g
- concentration at 0.5 h [1, 7]: 2280 ng/g
- concentration at 1 h [1, 7]: 2550 ng/g
- concentration at 1.5 h [1, 7]: 2340 ng/g
- concentration at 2 hr [1, 7]: 2570 ng/g
- concentration at 3 h [1, 7]: 2020 ng/g
- concentration at 5 h [1, 7]: 1520 ng/g
- concentration at 8 h [1, 7]: 330 ng/g
- concentration at 0.5 h [1, 8]: 47200 ng/g
- concentration at 1 h [1, 8]: 58000 ng/g
- concentration at 1.5 hr [1, 8]: 50000 ng/g
- concentration at 2 hr [1, 8]: 36700 ng/g
- concentration at 3 h [1, 8]: 27700 ng/g
- concentration at 5 h [1, 8]: 1330 ng/g
- concentration at 8 h [1, 8]: 8720 ng/g
- concentration at 0.5 h [1, 9]: 79200 ng/g
- concentration at 1 h [1, 9]: 79200 ng/g
- concentration at 1.5 h [1, 9]: 77400 ng/g
- concentration at 2 hr [1, 9]: 62200 ng/g
- concentration at 3 h [1, 9]: 48800 ng/g
- concentration at 5 h [1, 9]: 34000 ng/g
- concentration at 8 h [1, 9]: 20200 ng/g
- concentration at 0.5 h [1, 10]: 128000 ng/g
- concentration at 1 h [1, 10]: 114000 ng/g
- concentration at 1.5 h [1, 10]: 118000 ng/g
- concentration at 2 hr [1, 10]: 85400 ng/g
- concentration at 3 h [1, 10]: 70800 ng/g
- concentration at 5 h [1, 10]: 57400 ng/g
- concentration at 8 h [1, 10]: 26600 ng/g
- concentration at 0.5 h [1, 11]: 76300 ng/g
- concentration at 1 h [1, 11]: 70100 ng/g
- concentration at 1.5 h [1, 11]: 71500 ng/g
- concentration at 2 hr [1, 11]: 52700 ng/g
- concentration at 3 h [1, 11]: 38700 ng/g
- concentration at 5 h [1, 11]: 24500 ng/g
- concentration at 8 h [1, 11]: 11600 ng/g
- concentration at 0.5 h [1, 12]: 38000 ng/g
- concentration at 1 h [1, 12]: 39600 ng/g
- concentration at 1.5 h [1, 12]: 37400 ng/g
- concentration at 2 hr [1, 12]: 36700 ng/g
- concentration at 3 h [1, 12]: 28800 ng/g
- concentration at 5 h [1, 12]: 18000 ng/g
- concentration at 8 h [1, 12]: 6930 ng/g
- concentration at 0.5 h [1, 13]: 11.6 µg/mL
- concentration at 1 h [1, 13]: 12.2 µg/mL
- concentration at 1.5 h [1, 13]: 10.7 µg/mL
- concentration at 2 hr [1, 13]: 8.47 µg/mL
- concentration at 3 h [1, 13]: 6.3 µg/mL
- concentration at 5 h [1, 13]: 4.62 µg/mL
- concentration at 8 h [1, 13]: 1.87 µg/mL
- AUC(0-t) ([1]; plasma, ICR mice, p.o. 100 mg/kg, read-out: AUC0-t Plasma): 47.4 µg·h/mL
- concentration at 0.5 h [1, 14]: 91600 ng/g
- concentration at 1 h [1, 14]: 98100 ng/g
- concentration at 1.5 hr [1, 14]: 84900 ng/g
- concentration at 2 hr [1, 14]: 67300 ng/g
- concentration at 3 h [1, 14]: 57600 ng/g
- concentration at 5 h [1, 14]: 43700 ng/g
- concentration at 8 h [1, 14]: 23400 ng/g
- concentration at 1.5 hr [1, 15]: 10200 ng/g
- concentration at 2 hr [1, 15]: 12900 ng/g
- concentration at 3 h [1, 15]: 14800 ng/g
- concentration at 5 h [1, 15]: 11500 ng/g
- concentration at 0.5 h [1, 16]: 26500 ng/g
- concentration at 1 h [1, 16]: 48100 ng/g
- concentration at 1.5 hr [1, 16]: 48800 ng/g
- concentration at 2 hr [1, 16]: 40100 ng/g
- concentration at 3 h [1, 16]: 39800 ng/g
- concentration at 5 h [1, 16]: 25900 ng/g
- concentration at 8 h [1, 16]: 12800 ng/g
- Kp [2]: 8.82
- Lethal dose 50 (Male ICR mice): 209 mg/kg
- Solubility relative to the hydrochloride (Solubility test; distilled water): about 2 times
- solubility (Solubility test; room temperature, water): 190 mg/mL (≈ 470 mM)
- Content (%) 60? (after 3 weeks) ([3]; 60?, 3 weeks): 87.4%
- Content (%) Initial ([3]; initial): 98.1%
- Content (%) Room temperature (after 3 weeks) ([3]; room temperature, 3 weeks): 98.0%
- AUC(0-inf) [4, 17]: 9.32 ± 0.28 µg·h/mL
- AUC(0-t) [4, 17]: 7.52 ± 0.22 µg·h/mL
- Cmax [4, 17]: 4.18 ± 0.29 µg/mL
- Tmax [4, 17]: 0 h
- half-life [4, 17]: 2.05 ± 1.55 h
- AUC(0-t) [4, 18]: 52.7 ± 28.7 µg·h/mL
- Cmax [4, 18]: 9.08 ± 4.5 µg/mL
- Tmax [4, 18]: 2.13 ± 0.63 h
- BA (%) ([4]; p.o. 100 mg/kg, calculated by ratio of AUC0-t): 70.05%
- MNPCE number vs intact control [5]: not detected significant change
